What follows are molecules tested against T1, full-length ATR (Homo sapiens, UniProt Q13535) (assay: ATR Inhibition Assay (radioactive-phosphate incorporation)). Conditions: Ki(app); 5 nM full-length ATR, 10 μM [γ-33P]ATP, 800 μM target peptide, 25° C.
T1 construct: Assays were carried out at 25° C. in the presence of 5 nM full-length ATR
Format: biochemical
Procedure: Compounds were screened for their ability to inhibit ATR kinase using a radioactive-phosphate incorporation assay. Assays were carried out in a mixture of 50 mM Tris/HCl (pH 7.5), 10 mM MgCl2 and 1 mM DTT. Final substrate concentrations were 10 μM [γ-33P]ATP (3mCi 33P ATP/mmol ATP, Perkin Elmer) and 800 μM target peptide (ASELPASQPQPFSAKKK).
Assays were carried out at 25° C. in the presence of 5 nM full-length ATR. An assay stock buffer solution was prepared containing all of the reagents listed above, with the exception of ATP and the test compound of interest. 13.5 μL of the stock solution was placed in a 96 well plate followed by addition of 2 μL of DMSO stock containing serial dilutions of the test compound (typically starting from a final concentration of 15 μM with 3-fold serial dilutions) in duplicate (final DMSO concentration 7%). The plate was pre-incubated for 10 minutes at 25° C. and the reaction initiated by addition of 15 μL [γ-33P]ATP (final concentration 10 μM).
The reaction was stopped after […] by the addition of 30 μL 0.1M phosphoric acid containing 2 mM ATP. A multiscreen phosphocellulose filter 96-well plate (Millipore, Cat no. MAPHN0B50) was pretreated with 100 μL 0.2M phosphoric acid prior to the addition of 45 μL of the stopped assay mixture. The plate was washed with 5×200 μL 0.2M phosphoric acid. After drying, 100 μL Optiphase ‘SuperMix’ liquid scintillation cocktail (Perkin Elmer) was added to the well prior to scintillation counting (1450 Microbeta Liquid Scintillation Counter, Wallac).
After removing mean background values for all of the data points, Ki(app) data were calculated from non-linear regression analysis of the initial rate data using the Prism software package (GraphPad Prism version 3.0cx for Macintosh, GraphPad Software, San Diego Calif., USA).

T1 sequence (Q13535 whole entry): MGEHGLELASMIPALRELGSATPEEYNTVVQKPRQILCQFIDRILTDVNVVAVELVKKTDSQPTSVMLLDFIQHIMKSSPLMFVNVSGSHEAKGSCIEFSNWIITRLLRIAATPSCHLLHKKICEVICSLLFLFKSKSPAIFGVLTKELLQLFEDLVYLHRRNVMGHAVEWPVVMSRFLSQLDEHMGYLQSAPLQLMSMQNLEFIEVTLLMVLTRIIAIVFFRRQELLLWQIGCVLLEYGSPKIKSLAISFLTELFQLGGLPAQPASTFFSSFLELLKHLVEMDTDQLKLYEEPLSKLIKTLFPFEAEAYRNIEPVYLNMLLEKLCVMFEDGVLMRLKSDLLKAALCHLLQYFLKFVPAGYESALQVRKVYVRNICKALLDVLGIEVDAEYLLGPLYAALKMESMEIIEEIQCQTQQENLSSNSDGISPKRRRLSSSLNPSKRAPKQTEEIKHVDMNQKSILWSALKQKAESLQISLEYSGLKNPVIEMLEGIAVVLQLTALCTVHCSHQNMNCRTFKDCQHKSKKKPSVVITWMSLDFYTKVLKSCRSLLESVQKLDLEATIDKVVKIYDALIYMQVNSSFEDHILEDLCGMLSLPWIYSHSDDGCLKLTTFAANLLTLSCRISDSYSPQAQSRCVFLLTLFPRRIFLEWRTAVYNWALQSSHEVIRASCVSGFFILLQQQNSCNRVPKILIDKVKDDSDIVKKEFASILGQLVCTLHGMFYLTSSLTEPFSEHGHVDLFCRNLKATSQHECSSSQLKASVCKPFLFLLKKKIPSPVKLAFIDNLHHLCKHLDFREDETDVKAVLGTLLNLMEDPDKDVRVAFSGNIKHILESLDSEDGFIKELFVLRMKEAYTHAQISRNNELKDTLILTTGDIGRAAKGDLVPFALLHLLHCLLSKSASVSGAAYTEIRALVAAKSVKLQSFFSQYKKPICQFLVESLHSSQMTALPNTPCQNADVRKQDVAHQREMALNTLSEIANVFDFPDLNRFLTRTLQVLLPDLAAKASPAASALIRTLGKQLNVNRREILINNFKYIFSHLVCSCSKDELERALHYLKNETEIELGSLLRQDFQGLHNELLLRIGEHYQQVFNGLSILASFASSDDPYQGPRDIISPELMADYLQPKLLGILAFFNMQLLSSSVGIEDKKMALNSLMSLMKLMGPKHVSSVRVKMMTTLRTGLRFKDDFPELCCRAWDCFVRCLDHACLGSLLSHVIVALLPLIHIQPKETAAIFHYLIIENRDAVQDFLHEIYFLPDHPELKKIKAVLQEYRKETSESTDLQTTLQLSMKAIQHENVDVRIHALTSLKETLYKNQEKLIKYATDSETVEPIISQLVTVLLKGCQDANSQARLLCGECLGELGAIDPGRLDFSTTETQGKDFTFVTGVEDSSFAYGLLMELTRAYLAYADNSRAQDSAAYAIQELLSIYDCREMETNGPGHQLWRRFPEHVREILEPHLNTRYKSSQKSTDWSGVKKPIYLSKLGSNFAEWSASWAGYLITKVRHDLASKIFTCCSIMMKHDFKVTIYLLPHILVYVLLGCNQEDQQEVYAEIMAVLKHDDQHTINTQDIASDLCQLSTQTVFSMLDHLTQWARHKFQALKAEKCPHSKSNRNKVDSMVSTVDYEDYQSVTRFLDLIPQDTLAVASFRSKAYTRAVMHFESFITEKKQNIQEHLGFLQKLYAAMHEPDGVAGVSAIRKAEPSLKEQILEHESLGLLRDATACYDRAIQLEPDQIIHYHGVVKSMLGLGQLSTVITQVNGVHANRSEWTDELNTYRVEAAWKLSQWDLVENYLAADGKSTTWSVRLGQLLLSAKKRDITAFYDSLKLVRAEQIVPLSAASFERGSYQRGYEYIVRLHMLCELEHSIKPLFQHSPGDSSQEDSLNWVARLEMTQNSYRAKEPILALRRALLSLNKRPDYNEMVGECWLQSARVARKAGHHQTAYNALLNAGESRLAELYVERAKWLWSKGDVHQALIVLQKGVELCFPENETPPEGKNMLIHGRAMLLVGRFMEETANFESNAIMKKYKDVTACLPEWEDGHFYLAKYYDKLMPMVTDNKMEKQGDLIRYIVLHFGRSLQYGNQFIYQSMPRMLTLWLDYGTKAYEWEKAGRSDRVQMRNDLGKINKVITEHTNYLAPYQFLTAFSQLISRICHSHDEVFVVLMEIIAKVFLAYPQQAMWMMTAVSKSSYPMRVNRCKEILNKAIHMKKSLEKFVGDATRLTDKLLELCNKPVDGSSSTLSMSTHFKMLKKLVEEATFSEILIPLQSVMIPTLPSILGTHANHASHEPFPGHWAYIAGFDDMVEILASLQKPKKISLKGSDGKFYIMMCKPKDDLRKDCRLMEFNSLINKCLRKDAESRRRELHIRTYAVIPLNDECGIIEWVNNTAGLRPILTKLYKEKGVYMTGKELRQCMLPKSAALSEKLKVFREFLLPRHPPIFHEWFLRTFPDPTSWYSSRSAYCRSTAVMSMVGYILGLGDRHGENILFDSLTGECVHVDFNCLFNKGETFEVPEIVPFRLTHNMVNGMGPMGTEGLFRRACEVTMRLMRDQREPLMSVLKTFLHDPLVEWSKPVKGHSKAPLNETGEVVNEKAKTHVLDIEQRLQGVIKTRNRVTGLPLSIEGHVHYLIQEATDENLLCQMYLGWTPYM

Compound | Ki [nM]
CC(C)S(=O)(=O)c1ccc(-c2cnc3[nH]cc(NC(=O)c4ccc(C5CCCN5)cc4)c3n2)cc1 (stereo not shown) [Compound I-28, N-[2-(4-isopropylsulfonylphenyl)-5H-pyrrolo[2,3-b]pyrazin-7-yl]-4-pyrrolidin-2-yl-benzamide] | ≤ 10
CC(C)S(=O)(=O)c1ccc(-c2cnc3[nH]cc(NC(=O)c4ccc(OCCN(C)C)cc4)c3n2)cc1 [Compound I-29, 4-(2-dimethylaminoethyloxy)-N-[2-(4-isopropylsulfonylphenyl)-5H-pyrrolo[2,3-b]pyrazin-7-yl]benzamide] | ≤ 10
CC(C)S(=O)(=O)c1ccc(-c2cnc3[nH]cc(NC(=O)c4ccc(NC5CNC5)cc4)c3n2)cc1 [Compound I-30, 4-(azetidin-3-ylamino)-N-[2-(4-isopropylsulfonylphenyl)-5H-pyrrolo[2,3-b]pyrazin-7-yl]benzamide] | ≤ 10
COc1cccc(C(=O)Nc2c[nH]c3ncc(-c4ccc(S(=O)(=O)C(C)C)cc4)nc23)n1 [Compound I-31, N-[2-(4-isopropylsulfonylphenyl)-5H-pyrrolo[2,3-b]pyrazin-7-yl]-6-methoxy-pyridine-2-carboxamide] | 10 to 100
Cc1ccsc1C(=O)Nc1c[nH]c2ncc(-c3ccc(S(=O)(=O)C(C)C)cc3)nc12 [Compound I-32, N-[2-(4-isopropylsulfonylphenyl)-5H-pyrrolo[2,3-b]pyrazin-7-yl]-3-methyl-thiophene-2-carboxamide] | ≤ 10
CC(C)S(=O)(=O)c1ccc(-c2cnc3[nH]cc(NC(=O)CC4CC4)c3n2)cc1 [Compound I-33, 2-cyclopropyl-N-[2-(4-isopropylsulfonylphenyl)-5H-pyrrolo[2,3-b]pyrazin-7-yl]acetamide] | 10 to 100
CC(C)S(=O)(=O)c1ccc(-c2cnc3[nH]cc(NC(=O)c4cncs4)c3n2)cc1 [Compound I-34, N-[2-(4-isopropylsulfonylphenyl)-5H-pyrrolo[2,3-b]pyrazin-7-yl]thiazole-5-carboxamide] | 10 to 100
CC(C)S(=O)(=O)c1ccc(-c2cnc3[nH]cc(NC(=O)C4CCNCC4)c3n2)cc1 [Compound I-35, N-[2-(4-isopropylsulfonylphenyl)-5H-pyrrolo[2,3-b]pyrazin-7-yl]piperidine-4-carboxamide] | 10 to 100
CC(C)S(=O)(=O)c1ccc(-c2cnc3[nH]cc(NC(=O)C4CCOC4)c3n2)cc1 (stereo not shown) [Compound I-36, N-[2-(4-isopropylsulfonylphenyl)-5H-pyrrolo[2,3-b]pyrazin-7-yl]tetrahydrofuran-3-carboxamide] | 100 to 500
CC(C)S(=O)(=O)c1ccc(-c2cnc3[nH]cc(NC(=O)CC#N)c3n2)cc1 [Compound I-37, 2-cyano-N-[2-(4-isopropylsulfonylphenyl)-5H-pyrrolo[2,3-b]pyrazin-7-yl]acetamide] | 10 to 100
CC(C)S(=O)(=O)c1ccc(-c2cnc3[nH]cc(NC(=O)Cc4nnn[nH]4)c3n2)cc1 [Compound I-38, N-[2-(4-isopropylsulfonylphenyl)-5H-pyrrolo[2,3-b]pyrazin-7-yl]-2-(1H-tetrazol-5-yl)acetamide] | 10 to 100
CC(C)S(=O)(=O)c1ccc(-c2cnc3[nH]cc(NC(=O)COc4ccccc4)c3n2)cc1 [Compound I-39, N-[2-(4-isopropylsulfonylphenyl)-5H-pyrrolo[2,3-b]pyrazin-7-yl]-2-phenoxy-acetamide] | 100 to 500
CC(C)S(=O)(=O)c1ccc(-c2cnc3[nH]cc(NC(=O)c4ccccn4)c3n2)cc1 [Compound I-40, N-[2-(4-isopropylsulfonylphenyl)-5H-pyrrolo[2,3-b]pyrazin-7-yl]pyridine-2-carboxamide] | 10 to 100
CC(C)S(=O)(=O)c1ccc(-c2cnc3[nH]cc(NC(=O)c4ccc(N5CC[C@@H](N)C5)cc4)c3n2)cc1 [Compound I-41, 4-[(3R)-3-aminopyrrolidin-1-yl]-N-[2-(4-isopropylsulfonylphenyl)-5H-pyrrolo[2,3-b]pyrazin-7-yl]benzamide] | ≤ 10
CC(C)S(=O)(=O)c1ccc(-c2cnc3[nH]cc(NC(=O)c4ccc(N5CCC[C@H](N)C5)cc4)c3n2)cc1 [Compound I-42, 4-[(3S)-3-amino-1-piperidyl]-N-[2-(4-isopropylsulfonylphenyl)-5H-pyrrolo[2,3-b]pyrazin-7-yl]benzamide] | 10 to 100
CC(C)S(=O)(=O)c1ccc(-c2cnc3[nH]cc(NC(=O)Nc4ccccc4)c3n2)cc1 [Compound I-43, 1-[2-(4-isopropylsulfonylphenyl)-5H-pyrrolo[2,3-b]pyrazin-7-yl]-3-phenyl-urea] | 10 to 100

From patent US8822469B2, “Pyrrolo[2,3-B]pyrazines useful as inhibitors of ATR kinase” (Vertex Pharmaceuticals Incorporated, priority 2011, dated 2014)
